Like-named read-outs stand apart in the source and are kept apart here. Starred links: 1 amine or outer side, 2 acyl side, 3 side chain; linkers in the order of their positions; H or OH if unused. Positions of bridges follow the written chain, without caps; N, C: chain ends. Non-standard residues stand in square brackets, D forms with d. Residues, ends and D or L forms follow the SMILES beside them. *: point of attachment. Phe(4-(CH2)5CO) = O=C([C@H](Cc1ccc(CCCCCC(=O)[*:3])cc1)N[*:1])[*:2]; NMePhe(3-Cl) = CN[C@@H](Cc1cccc(Cl)c1)C(=O)O; NMeF = CN[C@@H](Cc1ccccc1)C(=O)O; NMeGABA = CN(CCCC(=O)[*:2])[*:1]; NMeI = CC[C@H](C)[C@H](NC)C(=O)O; NMeβAla = CN(CCC(=O)[*:2])[*:1]; NMeL = CN[C@@H](CC(C)C)C(=O)O; NMeV = CN[C@H](C(=O)O)C(C)C; NMeA = CN[C@@H](C)C(=O)O; Piperidide = C1CCN(*)CC1; Sar = CNCC(=O)O; tBu = CC(C)(C)*
Columns and labels:
[1] = PAMPA (parallel artificial membrane permeability assay); assay type: in vitro ADME; conditions: PAMPA
Outline: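 Artificial membrane was 10% (w/v) egg lecithin plus 0.5% (w/v) cholesterol in dodecane on a PVDF filter. A 10 mM DMSO stock was added at 0.5% (v/v) to donor buffer (50 mM MOPSO, pH 6.5, 5.0% glycocholic acid). After 18 h at 37 °C, LC/MS or LC/UV gave donor and acceptor levels for Pe.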

[2] = Metabolic stability in human hepatic microsome; assay type: in vitro ADME; conditions: microsomes
[3] = membrane permeation rate (Pe), 50 mM MOPSO buffer pH 6.5 with 5.0% glycocholic acid, 37° C., 18 hours, read-out: iPAMPA Pe
[4] = pH 7.4, human hepatic microsome, NADPH(+), read-out: CL NADPH(+)

With `CC[C@H](C)[C@@H]1NC(=O)[C@H](C)N(C)C(=O)[C@H](C)N(C)C(=O)C[C@@H](C(=O)N2CCCCC2)NC(=O)[C@H](CC(C)C)N(C)C(=O)[C@H](Cc2ccccc2)N(C)C(=O)[C@H](C)N(C)C(=O)[C@H]([C@@H](C)O)NC(=O)[C@H](Cc2ccccc2)N(C)C(=O)[C@H](CC(C)C)N(C)C1=O` [DP-258] ([NMeA][NMeA]I[NMeL][NMeF]T[NMeA][NMeF][NMeL]D-Piperidide; lactam N-10) the Papp at 18 hours, 50 µM [1, 3] was 52 ×10⁻⁶ cm/s and the microsomal CLint at 1 uM [2, 4] was 188 µL/min/mg.
With `CC(C)C[C@H]1C(=O)N[C@@H](COC(C)(C)C)C(=O)N[C@H](C(=O)N2CCCCC2)CC(=O)N(C)CC(=O)N(C)[C@@H](Cc2ccccc2)C(=O)N(C)[C@@H](C)C(=O)N(C)[C@@H](CC(C)C)C(=O)N[C@@H]([C@@H](C)O)C(=O)N(C)[C@@H](C)C(=O)N1C` [DP-163] ([Sar][NMeF][NMeA][NMeL]T[NMeA][NMeL]S(tBu)D-Piperidide; lactam N-9) the Papp at 18 hours, 50 µM [1, 3] was 23 ×10⁻⁶ cm/s and the microsomal CLint at 1 uM [2, 4] was 68 µL/min/mg.
In the case of `CC[C@H](C)[C@H](NC(=O)[C@H](CC(C)C)N(C)C(=O)CN(C)C(=O)[C@H](C)N(C)C(=O)[C@H](Cc1ccccc1)N(C)C(=O)[C@@H]1CC(=O)N[C@H](C(C)C)C(=O)N[C@@H](C(C)C)C(=O)N[C@@H]([C@@H](C)O)C(=O)N[C@@H](CC(C)C)C(=O)N[C@@H](Cc2ccccc2)C(=O)N(C)[C@@H](CC(C)C)C(=O)N(C)[C@@H](Cc2cccc(Cl)c2)C(=O)N1)C(=O)N1CCCCC1` [DP-924] ([dV]VTLF[NMeL][NMePhe(3-Cl)]D[NMeF][NMeA][Sar][NMeL]I-Piperidide; lactam N-8), the Papp at 18 hours, 50 µM [1, 3] is reported as 0.1 ×10⁻⁶ cm/s and the microsomal CLint at 1 uM [2, 4] is reported as 19 µL/min/mg.
Work on `CC(C)C[C@H]1C(=O)N(C)[C@@H](CC(C)C)C(=O)N[C@H](C(=O)N2CCCCC2)CC(=O)N(C)CCCC(=O)N(C)[C@@H](Cc2ccccc2)C(=O)N[C@@H]([C@@H](C)O)C(=O)N(C)CC(=O)N[C@@H](COC(C)(C)C)C(=O)N1C` [DP-525] ([NMeGABA][NMeF]T[Sar]S(tBu)[NMeL][NMeL]D-Piperidide; lactam N-8) yielded a Papp at 18 hours, 50 µM [1, 3] of 22 ×10⁻⁶ cm/s and a microsomal CLint at 1 uM [2, 4] of 86 µL/min/mg.
Work on `CC[C@H](C)[C@H]1C(=O)N[C@H](C(=O)N2CCCCC2)CC(=O)N(C)CCC(=O)N(C)[C@@H](Cc2ccccc2)C(=O)N(C)[C@@H](CC(C)C)C(=O)N[C@@H]([C@@H](C)O)C(=O)N(C)CC(=O)N(C)[C@@H](CC(C)C)C(=O)N[C@@H](COC(C)(C)C)C(=O)N1C` [DP-155] ([NMeβAla][NMeF][NMeL]T[Sar][NMeL]S(tBu)[NMeI]D-Piperidide; lactam N-9) yielded a Papp at 18 hours, 50 µM ([1]; pH 6.5) of 55 ×10⁻⁶ cm/s and a microsomal CLint at 1 uM ([2]; human, pH 7.4, CL NADPH(+)) of 101 µL/min/mg.
For `CC(C)C[C@H]1C(=O)N[C@@H](Cc2ccccc2)C(=O)N(C)[C@@H](C(C)C)C(=O)N[C@@H]([C@@H](C)O)C(=O)N(C)[C@@H](C)C(=O)NCC(=O)N(C)[C@@H](Cc2ccccc2)C(=O)N[C@H](C(=O)N(C)[C@@H](Cc2ccccc2)C(=O)N[C@@H](C)C(=O)N2CCCCC2)CC(=O)N(C)CCC(=O)N[C@@H](C(C)C)C(=O)N1C` [DP-352] ([NMeβAla]V[NMeL]F[NMeV]T[NMeA]G[NMeF]D[NMeF]A-Piperidide; lactam N-10), the Papp at 18 hours, 50 µM [1, 3] was 25 ×10⁻⁶ cm/s and the microsomal CLint at 1 uM [2, 4] was 66 µL/min/mg.
Compound `CC[C@H](C)[C@@H]1NC(=O)CCCCCc2ccc(cc2)C[C@@H](C(=O)N2CCCCC2)NC(=O)[C@H](Cc2ccccc2)N(C)C(=O)[C@H](CC(C)C)N(C)C(=O)[C@H](C)N(C)C(=O)[C@H](Cc2ccccc2)N(C)C(=O)[C@H]([C@@H](C)O)NC(=O)[C@H](CC(C)C)N(C)C(=O)[C@H](C)N(C)C(=O)[C@H](CC(C)C)N(C)C1=O` [DP-868] (I[NMeL][NMeA][NMeL]T[NMeF][NMeA][NMeL][NMeF][Phe(4-(CH2)5CO)]-Piperidide; lactam N-10) has a Papp at 18 hours, 50 µM [1, 3] of 0.24 ×10⁻⁶ cm/s and a microsomal CLint at 1 uM [2, 4] of 61 µL/min/mg.

— patent US9409952B2, “Peptide-compound cyclization method” (Chugai Seiyaku Kabushiki Kaisha, priority 2011, dated 2016)
